Reference: ChEMBL document CHEMBL2177008, “Discovery of benzodiazepine sulfonamide-based bombesin receptor subtype 3 agonists and their unusual chirality” (ACS Med Chem Lett, 2011)
The source made the active and inactive calls. The calls are words filed in the database; no cut-off is given here.

Columns and labels:
[1] = target: T1, Bombesin receptor subtype-3 (Mus musculus) (UniProt O54798); assay: Agonist activity at mouse BRS3 expressed in HEK293 cells expressing aequorin measured for 30 secs by bioluminescence assay relative to [125I]-[D-Tyr6,beta-Ala11,Phe13,Nle14]-Bombesin(6-14); type: functional, cell-based
T1 sequence (whole entry): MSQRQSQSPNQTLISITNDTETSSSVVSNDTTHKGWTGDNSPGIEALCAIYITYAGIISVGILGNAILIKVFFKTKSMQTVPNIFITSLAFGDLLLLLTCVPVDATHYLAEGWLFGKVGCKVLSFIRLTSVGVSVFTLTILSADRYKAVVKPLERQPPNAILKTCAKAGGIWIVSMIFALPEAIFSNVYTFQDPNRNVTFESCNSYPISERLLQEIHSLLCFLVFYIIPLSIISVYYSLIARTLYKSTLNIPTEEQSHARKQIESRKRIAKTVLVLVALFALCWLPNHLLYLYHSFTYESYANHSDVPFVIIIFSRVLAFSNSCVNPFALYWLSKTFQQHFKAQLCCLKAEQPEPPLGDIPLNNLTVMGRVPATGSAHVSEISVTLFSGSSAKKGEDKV

[2] = target: T2, Bombesin receptor subtype-3 (Mus musculus, UniProt O54798); assay: Agonist activity at mouse BRS3 expressed in HEK293 cells expressing aequorin measured for 30 secs by bioluminescence assay; type: functional, cell-based
T2 sequence (O54798 whole entry): T1 sequence (whole entry)

[3] = target: T3, Bombesin receptor subtype-3 (Homo sapiens, UniProt P32247); assay: Agonist activity at human BRS3 expressed in HEK293 cells expressing aequorin measured for 30 secs by bioluminescence assay; type: functional, cell-based
T3 sequence (P32247 whole entry): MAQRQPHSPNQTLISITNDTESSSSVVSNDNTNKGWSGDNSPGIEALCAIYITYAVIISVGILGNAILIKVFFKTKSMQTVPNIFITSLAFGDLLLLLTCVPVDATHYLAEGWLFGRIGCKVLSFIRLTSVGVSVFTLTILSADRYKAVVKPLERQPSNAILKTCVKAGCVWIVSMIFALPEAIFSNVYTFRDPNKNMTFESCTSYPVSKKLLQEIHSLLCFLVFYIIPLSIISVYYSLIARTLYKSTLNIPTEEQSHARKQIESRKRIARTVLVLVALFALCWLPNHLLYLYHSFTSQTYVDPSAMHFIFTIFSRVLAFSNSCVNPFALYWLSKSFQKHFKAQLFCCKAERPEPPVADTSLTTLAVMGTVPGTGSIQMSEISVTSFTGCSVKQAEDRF

[4] = target: T3, Bombesin receptor subtype-3; assay: Displacement of [125I]-[D-Tyr6,beta-Ala11,Phe13,Nle14]-Bombesin(6-14) from human BRS3 expressed in CHO cells expressing NFAT after 2 hrs by liquid scintillation counting; type: cell-based
Mus musculus [5] = assay: Antiobesity activity in diet-induced obese wild type C57 mouse assessed as weight loss at 3 mg/kg, po administered QD 60 mins prior to dark cycle onset relative to control; type: functional
Rattus norvegicus = assay: Dose normalized AUC in Sprague-Dawley rat at 4 mg/kg, po; type: ADME, organism-based; parameters: dose 4 mg/kg, route oral; conditions: in vivo
[6] = Half life in Sprague-Dawley rat at 1 mg/kg, iv; type: ADME, organism-based; parameters: dose 1 mg/kg, route intravenous; conditions: in vivo
[7] = Oral bioavailability in Sprague-Dawley rat at 4 mg/kg; type: ADME, organism-based; conditions: in vivo
[8] = Plasma clearance in Sprague-Dawley rat at 1 mg/kg, iv; type: ADME, organism-based; parameters: dose 1 mg/kg, route intravenous
[9] = Agonist activity at rhesus monkey BRS3; type: functional, Macaca mulatta
Macaca mulatta = species on record: Macaca mulatta; assay: Agonist activity at rhesus monkey BRS3 relative to [125I]-[D-Tyr6,beta-Ala11,Phe13,Nle14]-Bombesin(6-14); type: functional
[10] = target: T4, Nuclear receptor subfamily 1 group I member 2 (Homo sapiens, UniProt O75469); assay: Activation of human PXR
T4 sequence (O75469 whole entry): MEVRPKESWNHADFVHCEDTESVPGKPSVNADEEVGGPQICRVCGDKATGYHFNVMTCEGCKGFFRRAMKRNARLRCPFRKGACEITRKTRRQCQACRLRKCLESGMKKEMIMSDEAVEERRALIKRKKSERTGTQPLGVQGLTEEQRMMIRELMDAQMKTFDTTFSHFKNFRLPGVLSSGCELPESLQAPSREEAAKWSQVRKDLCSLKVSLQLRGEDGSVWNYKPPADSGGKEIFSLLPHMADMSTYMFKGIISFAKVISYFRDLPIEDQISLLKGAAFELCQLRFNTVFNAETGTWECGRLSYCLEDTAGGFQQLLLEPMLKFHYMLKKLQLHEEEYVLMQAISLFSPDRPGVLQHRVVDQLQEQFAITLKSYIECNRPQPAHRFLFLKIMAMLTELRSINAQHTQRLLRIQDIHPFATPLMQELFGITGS

Canis lupus familiaris = species on record: Canis lupus familiaris; assay: Agonist activity at dog BRS3 relative to [125I]-[D-Tyr6,beta-Ala11,Phe13,Nle14]-Bombesin(6-14); type: functional
Mus musculus [11] = assay: Antiobesity activity in po dosed diet-induced obese wild type C57 mouse assessed as body weight loss administered 60 mins prior to dark cycle onset measured after 18 hrs; type: functional, organism-based
Mus musculus [12] = assay: Antiobesity activity in po dosed diet-induced obese wild type C57 mouse assessed as reduction in food intake administered 60 mins prior to dark cycle onset measured after 18 hrs; type: functional, organism-based
[13] = Agonist activity at dog BRS3; type: functional, Canis lupus familiaris
[14] = target: T3, Bombesin receptor subtype-3; assay: Agonist activity at human BRS3 expressed in HEK293 cells expressing aequorin measured for 10 mins by bioluminescence assay
PXR = target: T5, PXR (Homo sapiens, UniProt O75469); assay: Activation of human PXR at 10 uM relative to control; conditions: read-out: Activity
T5 sequence (O75469 whole entry): T4 sequence (O75469 whole entry)

[15] = Oral bioavailability in rhesus monkey; type: ADME, organism-based, Macaca mulatta; conditions: in vivo
[16] = Inhibition of calcium channel Diltiazem hydrochloride binding site
Mus musculus [17] = assay: Antiobesity activity in diet-induced obese […] knock-out C57 mouse assessed as reduction in food intake at 3 and 30 mg/kg, po administered 60 mins prior to dark cycle onset measured after 18 hrs; type: functional, organism-based; parameters: dose 30 mg/kg
[18] = Displacement of [125I]-[D-Tyr6,beta-Ala11,Phe13,Nle14]-Bombesin(6-14) from dog BRS3; parameters: species or system Canis lupus familiaris
[19] = Displacement of [125I]-[D-Tyr6,beta-Ala11,Phe13,Nle14]-Bombesin(6-14) from rhesus monkey BRS3; parameters: species or system Macaca mulatta
[20] = Half life in rhesus monkey; type: ADME, organism-based, Macaca mulatta; conditions: in vivo
[21] = target: Voltage-gated inwardly rectifying potassium channel KCNH2 (Homo sapiens, UniProt Q12809); assay: Inhibition of human ERG
Chain of Voltage-gated inwardly rectifying potassium channel KCNH2 (Q12809 whole entry): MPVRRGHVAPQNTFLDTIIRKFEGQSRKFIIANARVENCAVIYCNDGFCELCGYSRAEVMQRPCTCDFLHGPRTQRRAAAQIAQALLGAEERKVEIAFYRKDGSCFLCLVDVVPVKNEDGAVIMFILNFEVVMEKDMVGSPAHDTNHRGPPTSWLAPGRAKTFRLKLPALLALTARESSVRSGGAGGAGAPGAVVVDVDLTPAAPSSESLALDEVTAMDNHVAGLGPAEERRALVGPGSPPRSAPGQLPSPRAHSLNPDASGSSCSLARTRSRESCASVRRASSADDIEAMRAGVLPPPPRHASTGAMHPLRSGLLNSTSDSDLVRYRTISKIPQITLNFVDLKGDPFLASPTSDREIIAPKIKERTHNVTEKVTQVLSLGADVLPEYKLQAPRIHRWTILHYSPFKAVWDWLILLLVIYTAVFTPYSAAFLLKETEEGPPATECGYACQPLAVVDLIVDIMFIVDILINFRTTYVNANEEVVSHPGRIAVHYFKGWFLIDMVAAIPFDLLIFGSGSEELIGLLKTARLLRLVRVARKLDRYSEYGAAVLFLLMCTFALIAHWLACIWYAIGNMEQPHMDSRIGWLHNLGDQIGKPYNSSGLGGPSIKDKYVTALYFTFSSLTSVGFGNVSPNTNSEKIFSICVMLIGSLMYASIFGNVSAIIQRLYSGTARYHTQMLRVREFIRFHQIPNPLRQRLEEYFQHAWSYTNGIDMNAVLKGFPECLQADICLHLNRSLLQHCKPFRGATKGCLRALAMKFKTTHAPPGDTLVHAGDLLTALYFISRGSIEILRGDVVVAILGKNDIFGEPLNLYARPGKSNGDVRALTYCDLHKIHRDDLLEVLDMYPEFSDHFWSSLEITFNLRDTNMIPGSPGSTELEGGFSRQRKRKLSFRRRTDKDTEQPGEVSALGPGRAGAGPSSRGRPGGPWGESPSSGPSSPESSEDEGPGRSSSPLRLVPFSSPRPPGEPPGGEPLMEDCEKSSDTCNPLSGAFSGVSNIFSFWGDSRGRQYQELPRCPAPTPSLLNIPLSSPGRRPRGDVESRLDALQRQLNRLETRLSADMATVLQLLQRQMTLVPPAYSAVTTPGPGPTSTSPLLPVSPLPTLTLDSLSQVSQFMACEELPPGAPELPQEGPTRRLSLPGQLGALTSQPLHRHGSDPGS

max activation [1] [%]	EC50 [2] [nM]	EC50 [3] [nM]	IC50 [4] [nM]	Structure (SMILES)	also measured
112	171	110	–	Cc1ccc2c(n1)N(S(=O)(=O)c1ccc(C(C)(C)C)cc1)Cc1ccc(C(F)(F)F)nc1N2	–
100	79	154	6.8	Cc1ccc2c(c1C)N(S(=O)(=O)c1ccc(C(F)(F)F)cc1)Cc1ccc(C(F)(F)F)nc1N2	–
103	80	43	3.3	Cc1ccc2c(c1C)N(S(=O)(=O)c1ccc(OC(F)(F)F)cc1)Cc1ccc(C(F)(F)F)nc1N2	–
105	98	38	1.2	Cc1ccc2c(c1C)N(S(=O)(=O)c1ccc(C(C)(C)C)cc1)Cc1ccc(Cl)nc1N2	–
–	–	–	–	Cc1c(C(=O)NN2CCCCC2)nn(-c2ccc(Cl)cc2Cl)c1-c1ccc(I)cc1	Activity (Mus musculus [5]): 6.2%
101	248	325	40	Cc1ccc2c(c1C)N(S(=O)(=O)c1ccc(C(C)(C)C)cc1)Cc1cccnc1N2	AUC/dose (Rattus norvegicus): 0.007 µM·kg·h/mg; half-life [6]: 1.6 h; bioavailability [7]: 1%; clearance [8]: 164 mL/min/kg
–	> 10000	> 10000	430	Cc1ccc2c(c1C)N(S(=O)(=O)c1ccc(C(C)(C)C)cc1)Cc1cc(Cl)cnc1N2	–
107	232	131	10	Cc1ccc2c(n1)Nc1ccc(C)c(C)c1N(S(=O)(=O)c1ccc(C(C)(C)C)cc1)C2	–
98	161	110	5.5	CC(C)(C)c1ccc(S(=O)(=O)N2Cc3ccc(C(F)(F)F)nc3Nc3ccccc32)cc1	–
103	50	50	4.4	Cc1ccc2c(c1C)N(S(=O)(=O)c1ccc(C(C)(C)C)cc1)Cc1ccc(C#N)nc1N2	–
103	96	123	14	Cc1ccc2c(c1C)N(S(=O)(=O)c1csc(C(F)(F)F)c1)Cc1ccc(C(F)(F)F)nc1N2	–
98	–	–	–	Cc1ccc2c(c1C)N(S(=O)(=O)c1ccc(C(C)(C)C)cc1)Cc1ccc(C(F)(F)F)nc1N2	EC50 [9]: 70 nM; max activation (Macaca mulatta): 97%; EC50 [10]: 678 nM; max activation (Canis lupus familiaris): 97%; AUC/dose (Rattus norvegicus): 0.2 µM·kg·h/mg; Activity (Mus musculus [11]): Dose-dependent effect; half-life [6]: 1.6 h; Activity (Mus musculus [12]): Dose-dependent effect; EC50 [13]: 36 nM; EC50 [14]: 15 nM; bioavailability [7]: 15%; activity at 10 µM (PXR): 42%; bioavailability [15]: 17%; IC50 [16]: > 10000 nM; clearance [8]: 29 mL/min/kg; Activity (Mus musculus [17]): inactive; IC50 [18]: 1.6 nM; IC50 [19]: 3 nM; half-life [20]: 1.8 h; IC50 [21]: > 10000 nM
82	377	199	5.8	Cc1ccc2c(c1)N(S(=O)(=O)c1ccc(C(C)(C)C)cc1)Cc1ccc(C(F)(F)F)nc1N2	AUC/dose (Rattus norvegicus): 0.31 µM·kg·h/mg; half-life [6]: 2.2 h; bioavailability [7]: 22%; clearance [8]: 24 mL/min/kg
–	> 10000	> 10000	–	Cc1ccc2c(c1C)Nc1nc(C(F)(F)F)ccc1CN2S(=O)(=O)c1ccc(C(C)(C)C)cc1	–
82	371	277	8.9	Cc1ccc2c(c1C)N(S(=O)(=O)c1ccc(C(C)(C)C)cc1)Cc1cc(F)c(Cl)nc1N2	–
106	120	50	0.9	Cc1cccc2c1N(S(=O)(=O)c1ccc(C(C)(C)C)cc1)Cc1ccc(C(F)(F)F)nc1N2	AUC/dose (Rattus norvegicus): 0.13 µM·kg·h/mg; half-life [6]: 1.6 h; bioavailability [7]: 14%; clearance [8]: 38 mL/min/kg
108	200	69	5.7	Cc1ccc2c(c1C)N(S(=O)(=O)c1ccc(C(C)(C)F)cc1)Cc1ccc(C(F)(F)F)nc1N2	–
115	209	88	2.2	CC(C)(C)c1ccc(S(=O)(=O)N2Cc3ccc(C(F)(F)F)nc3Nc3cccc(O)c32)cc1	–
46	561	543	73	Cc1ccc2c(c1C)N(S(=O)(=O)c1ccc(S(C)(=O)=O)cc1)Cc1ccc(C(F)(F)F)nc1N2	–
107	129	108	0.7	CC(C)(C)c1ccc(S(=O)(=O)N2Cc3ccc(C(F)(F)F)nc3Nc3ccc4ncccc4c32)cc1	–
83	79	60	5.7	Cc1ccc2c(c1C)N(S(=O)(=O)c1ccc(C(C)(C)C#N)cc1)Cc1ccc(C(F)(F)F)nc1N2	–
110	84	49	1.6	Cc1ccc2c(c1C)N(S(=O)(=O)c1ccc(C(C)C)cc1)Cc1ccc(C(F)(F)F)nc1N2	AUC/dose (Rattus norvegicus): 0.24 µM·kg·h/mg; half-life [6]: 3.5 h; bioavailability [7]: 10%; clearance [8]: 16 mL/min/kg
100	155	63	3.2	CC(C)(C)c1ccc(S(=O)(=O)N2Cc3ccc(C(F)(F)F)nc3Nc3cccc(Cl)c32)cc1	AUC/dose (Rattus norvegicus): 0.26 µM·kg·h/mg; half-life [6]: 1.4 h; bioavailability [7]: 34%; clearance [8]: 46 mL/min/kg
97	134	77	5	CC(C)(C)c1ccc(S(=O)(=O)N2Cc3ccc(C(F)(F)F)nc3Nc3ccc(C(C)(C)O)c(F)c32)cc1	AUC/dose (Rattus norvegicus): 0.19 µM·kg·h/mg; half-life [6]: 3 h; bioavailability [7]: 13%; clearance [8]: 24 mL/min/kg
90	154	158	10	Cc1ccc2c(c1C)N(S(=O)(=O)c1ccc(C(F)(F)F)s1)Cc1ccc(C(F)(F)F)nc1N2	–
